In patent publication US4017632A, “Phenoxyacetic acid derivatives” (Centre European de Recherches Pharmacologiques C.E.R.P.H.A., priority 1975, dated 1977):

Tests used:
[1] = Acute toxicity per os in mice; details: mouse, in vivo, po; for LD50 at 48 h: male mice (Swiss C.D), per os, mortality after 48 hours, read-out: LD 50 per os
Description: The compounds were administered in the usual way to lots of 10 male mice (Swiss C.D) of average weight 20 g. Mortality was assessed after 48 hours for toxicity per os.

[2] = system: retention of phenol red in the circulation; experiment: Uricosuric activity: retention of phenol red in the circulation of the rat; format: in vivo; details: 100 mg/kg per os; for % of retention (phenol red), 15 mn: 15 min after phenol red injection; for % of retention (phenol red), 30 mn: 30 min after phenol red injection; for % of retention (phenol red), 45 mn: 45 min after phenol red injection; for % of retention (phenol red), 60 mn: 60 min after phenol red injection
Description: This activity was determined by the ability of the compounds to cause retention of phenol red in the circulation of the rat, method described by
Scarborough h. c. and M. C. KINNEY G. R. --
The products were administered one hour before phenol red injection to batches of 5 rats of 250-280 g; anesthetized with ether, the animals received an I.V. injection of 1 cm3 of a 1% phenol red solution. Blood samplings were made 15, 30, 45 and 60 minutes after injection. The pink colour develop after addition to the plasma of an N/10 aqueous solution of sodium hydroxide.
For instance the compounds of examples 5 and 1, and benziodarone give the following results for a dosis of 100 mg/kg per os.

[3] = system: diuresis; experiment: Diuretic activity in mice; format: in vivo
Description: The activity is determined on mice. The ratio R of the mean values of diuresis obtained for the treated animals to the mean values for control animals are determined.

[4] = system: urinary excretion and clearance of uric acid; experiment: Uricosuric activity in the phosphate-mannitol infused mongrel dog (renal clearance); format: in vivo
Description: The uricosuric activity of the compound of example 1 was further studied.
The uricosuric activity is determined by intravenous administration of a test compound to the phosphate-mannitol infused mongrel dog as a rapid injection at doses of 5 or 15 mg/kg. Renal clearance studies are compared against control experiments conducted in the same dogs. The urate clearance is calculated from the plasma and urinary concentrations. […] For example, compound of example 1 at a dose of 5 mg/kg i.v. increased urate excretion as a percentage of glomerular filtration rate from a value of 27% up to 40% and at a dose of 15 mg/kg i.v. increased it from 28% up to 74%.

SMILES | LD50 at 48 h [1] [mg/kg] | % of retention (phenol red), 15 mn [2] [%] | % of retention (phenol red), 30 mn [2] [%] | % of retention (phenol red), 45 mn [2] [%] | % of retention (phenol red), 60 mn [2] [%] | LD50 ([1]; P.O., ethacrynic acid, given in the diuretic activity section, read-out: DL 50 P.O.) [mg/kg] | ratio R of mean diuresis of treated animals to control animals ([3]; 20 mg/kg P.O.) | ratio R of mean diuresis of treated animals to control animals ([3]; 100 mg/kg P.O.) | urate excretion as a percentage of glomerular filtration rate ([4]; 5 mg/kg i.v., increased from a value of 27%) [%] | urate excretion as a percentage of glomerular filtration rate ([4]; 15 mg/kg i.v., increased from 28%) [%]
O=C(O)COc1c(Br)cc(C(O)c2cccs2)cc1Br (centres unmarked) [Example 5, 2,6-dibromo-4-(2-thienyl-hydroxy-methyl)-phenoxy-acetic acid] | > 1000 | 68 | 123 | 105 | 58 | – | – | – | – | –
CCc1oc2ccccc2c1C(=O)c1cc(I)c(O)c(I)c1 [benziodarone, reference compound] | 1400 | 37 | 50 | 53 | 18 | – | – | – | – | –
C=C(CC)C(=O)c1ccc(OCC(=O)O)c(Cl)c1Cl [ethacrynic acid, reference compound] | – | – | – | – | – | 600 | 2.4 | – | – | –
O=C(O)COc1ccc(C(O)c2cccs2)c(Cl)c1Cl (centres unmarked) [Example 1, 2,3-dichloro-4-(2-thienyl-hydroxy-methyl)-phenoxy-acetic acid] | 1000 | 51 | 44 | 31 | 28 | – | – | 1.6 | 40 | 74
